Laboratory results reported in patent US20230011571A1, “SMALL MOLECULE FURIN INHIBITORS FOR TREATING INFECTIOUS DISEASES” (BP Asset V, Inc., priority 2019, published 2023).

Experiments:
Assay type in all cases: cell-based
[1] = test system: Chikungunya virus (CHIKV); assay: microbe, parasite or virus in culture; conditions: Chikungunya virus, Vero, 48 h, read-out: Percent viral inhibition CHKV
Marburg virus (MARV) = assay: organism not typed; conditions: Vero, 72 h, read-out: Percent viral inhibition MARV
dengue virus (DENV) = assay: microbe, parasite or virus in culture; conditions: Dengue virus, Vero, 120 h, read-out: Percent viral inhibition DENY

## CN1CCCN(c2ncc(Oc3cc(CN4CCC(CC(=O)O)CC4)cc(-c4cc(F)cc(Cl)c4)n3)cn2)CC1 [Example 374, 2-(1-((2-(3-chloro-5-fluorophenyl)-6-((2-(4-methyl-1,4-diazepan-1-yl)pyrimidin-5-yl)oxy)pyridin-4-yl)methyl)piperidin-4-yl)acetic acid]
[1]
  inhibition at 1 µM: 17.6%
Marburg virus (MARV)
  inhibition at 1 µM: 48.6%
Dengue virus (DENV)
  inhibition at 1 µM: 38.5%

## CC(CO)N1CCN(c2ncc(Oc3cc(CN4CCC(CC(=O)O)CC4)cc(-c4cc(Cl)cc(Cl)c4)n3)cn2)CC1 (stereo not drawn) [Example 21, 2-(1-((2-(3,5-dichlorophenyl)-6-((2-(4-(1-hydroxypropan-2-yl)piperazin-1-yl)pyrimidin-5-yl)oxy)pyridin-4-yl)methyl)piperidin-4-yl)acetic acid]
[1]
  inhibition at 1 µM: 26.2%
Marburg virus (MARV)
  inhibition at 1 µM: 46.4%
Dengue virus (DENV)
  inhibition at 1 µM: 8.18%

## O=C(O)CC1CCN(Cc2cc(Oc3cnc(N4CCCNCC4)nc3)nc(-c3cc(Cl)cc(Cl)c3)c2)CC1 [Example 132, 2-(1-((2-((2-(1,4-diazepan-1-yl)pyrimidin-5-yl)oxy)-6-(3,5-dichlorophenyl)pyridin-4-yl)methyl)piperidin-4-yl) acetic acid]
[1]
  inhibition at 1 µM: 35.2%
Marburg virus (MARV)
  inhibition at 1 µM: 46.8%
Dengue virus (DENV)
  inhibition at 1 µM: 32.8%

## CNC(=O)NCC1CCN(Cc2cc(Oc3cnc(N4CCN(CCC(=O)O)CC4)c(F)c3)nc(-c3cc(Cl)cc(Cl)c3)c2)CC1 [Example 270, 3-(4-(5-((6-(3,5-dichlorophenyl)-4-((4-((3-methylureido)methyl)piperidin-1-yl)methyl)pyridin-2-yl)oxy)-3-fluoropyridin-2-yl)piperazin-1-yl)propanoic acid]
[1]
  inhibition at 1 µM: 30.7%
Marburg virus (MARV)
  inhibition at 1 µM: 53.6%
Dengue virus (DENV)
  inhibition at 1 µM: 61.6%

## COC(=O)C(C)CCN1CCN(c2ncc(Oc3cc(CN4CCC(CNC(C)=O)CC4)cc(-c4cc(Cl)cc(Cl)c4)n3)cn2)CC1 (stereo not drawn) [Example 368, methyl4-(4-(5-((4-((4-(acetamidomethyl)piperidin-1-yl)methyl)-6-(3,5-dichlorophenyl)pyridin-2-yl)oxy)pyrimidin-2-yl)piperazin-1-yl)-2-methylbutanoate]
[1]
  inhibition at 1 µM: 32.5%
Marburg virus (MARV)
  inhibition at 1 µM: 65.4%
Dengue virus (DENV)
  inhibition at 1 µM: 65.8%

## CS(=O)(=O)CCC1CCN(Cc2cc(Oc3ccc(N4CCN(CCC(=O)O)CC4)nc3)nc(-c3cc(Cl)cc(Cl)c3)c2)CC1 [Example 276, 3-(4-(5-((6-(3,5-dichlorophenyl)-4-((4-(2-(methylsulfonyl)ethyl)piperidin-1-yl)methyl)pyridin-2-yl)oxy)pyridin-2-yl)piperazin-1-yl)propanoic acid]
[1]
  inhibition at 1 µM: 31.8%
Marburg virus (MARV)
  inhibition at 1 µM: 51.8%
Dengue virus (DENV)
  inhibition at 1 µM: 27.3%

## CC(=O)NCC1CCN(Cc2cc(Oc3cnc(N4CCN(C5CC(C(=O)O)C5)CC4)nc3)nc(-c3cc(Cl)cc(Cl)c3)c2)CC1 (stereo not drawn) [Example 216]
[1]
  inhibition at 1 µM: 21.4%
Marburg virus (MARV)
  inhibition at 1 µM: 38.5%
Dengue virus (DENV)
  inhibition at 1 µM: 8.34%

## CNC(=O)OCC1CCN(Cc2cc(Oc3cnc(N4CCN(C[C@@H](C)O)CC4)nc3)nc(-c3cc(Cl)cc(Cl)c3)c2)CC1 [Example 308, (R)-(1-((2-(3,5-dichlorophenyl)-6-((2-(4-(2-hydroxypropyl)piperazin-1-yl)pyrimidin-5-yl)oxy)pyridin-4-yl)methyl)piperidin-4-yl)methylmethylcarbamate]
[1]
  inhibition at 1 µM: 0%
Marburg virus (MARV)
  inhibition at 1 µM: 23.7%
Dengue virus (DENV)
  inhibition at 1 µM: 0%

## CS(=O)(=O)CCCN1CCN(c2ncc(Oc3cc(CN4CCC(CCC(=O)O)CC4)cc(-c4cc(Cl)cc(Cl)c4)n3)cn2)CC1 [Example 272, 3-(1-((2-(3,5-dichlorophenyl)-6-((2-(4-(3-(methylsulfonyl)propyl)piperazin-1-yl)pyrimidin-5-yl)oxy)pyridin-4-yl)methyl)piperidin-4-yl)propanoic acid]
[1]
  inhibition at 1 µM: 30.3%
Marburg virus (MARV)
  inhibition at 1 µM: 45.5%
Dengue virus (DENV)
  inhibition at 1 µM: 42.4%

## CC(=O)NCC1CCN(Cc2cc(Oc3ccc(N4CCN(CCS(C)(=O)=O)CC4)nc3)cc(-c3cc(Cl)cc(Cl)c3)c2)CC1 [Example 293, N-((1-((3′,5′-dichloro-5-((6-(4-(2-(methylsulfonyl)ethyl)piperazin-1-yl)pyridin-3-yl)oxy)-[1,1′-biphenyl]-3-yl)methyl)piperidin-4-yl)methyl)acetamide]
[1]
  inhibition at 1 µM: 0%
Marburg virus (MARV)
  inhibition at 1 µM: 0%
Dengue virus (DENV)
  inhibition at 1 µM: 0%

## CN1C[C@@H]2C[C@H]1CN2c1ncc(Oc2cc(CN3CCC(CC(=O)O)CC3)cc(-c3cc(Cl)cc(Cl)c3)n2)cn1 [Example 231, 2-(1-((2-(3,5-dichlorophenyl)-6-((2-((1S,4S)-5-methyl-2,5-diazabicyclo[2.2.1]heptan-2-yl)pyrimidin-5-yl)oxy)pyridin-4-yl)methyl)piperidin-4-yl)acetic acid]
[1]
  inhibition at 1 µM: 25.8%
Marburg virus (MARV)
  inhibition at 1 µM: 66.6%
Dengue virus (DENV)
  inhibition at 1 µM: 44.2%

## CC(=O)NCC1CCN(Cc2cc(Oc3ccc(N4CCN(CCC(=O)O)CC4)nn3)nc(-c3cc(Cl)cc(Cl)c3)c2)CC1 [Example 169, 3-(4-(6-((4-((4-(acetamidomethyl)piperidin-1-yl)methyl)-6-(3,5-dichlorophenyl)pyridin-2-yl)oxy)pyridazin-3-yl)piperazin-1-yl)propanoic acid]
[1]
  inhibition at 1 µM: 0%
Marburg virus (MARV)
  inhibition at 1 µM: 16.4%
Dengue virus (DENV)
  inhibition at 1 µM: 0%

## CC(=O)NCC1CCN(Cc2cc(Oc3cnc(N4CCCNCC4)nc3)nc(-c3cc(Cl)cc(Cl)c3)c2)CC1 [Example 118, N-((1-((2-((2-(1,4-diazepan-1-yl)pyrimidin-5-yl)oxy)-6-(3,5-dichlorophenyl)pyridin-4-yl)methyl)piperidin-4-yl)methyl)acetamide]
[1]
  inhibition at 1 µM: 0%
Marburg virus (MARV)
  inhibition at 1 µM: 0%
Dengue virus (DENV)
  inhibition at 1 µM: 15.6%

## CC(CCN1CCN(c2cnc(Oc3cc(CN4CCC(CCO)CC4)cc(-c4cc(Cl)cc(Cl)c4)n3)cn2)CC1)C(=O)O (stereo not drawn) [Example 341, 4-(4-(5-((6-(3,5-dichlorophenyl)-4-((4-(2-hydroxyethyl)piperidin-1-yl)methyl)pyridin-2-yl)oxy)pyrazin-2-yl)piperazin-1-yl)-2-methylbutanoic acid]
[1]
  inhibition at 1 µM: 29.2%
Marburg virus (MARV)
  inhibition at 1 µM: 50.5%
Dengue virus (DENV)
  inhibition at 1 µM: 31.2%

## CC(=O)NCC1CCN(Cc2cc(Oc3cnc(N4CCN(C(C)CC(=O)O)CC4)nc3)nc(-c3cc(Cl)cc(Cl)c3)c2)CC1 (stereo not drawn) [Example 282, 3-(4-(5-((4-((4-(acetamidomethyl)piperidin-1-yl)methyl)-6-(3,5-dichlorophenyl)pyridin-2-yl)oxy)pyrimidin-2-yl)piperazin-1-yl)butanoic acid]
[1]
  inhibition at 1 µM: 8.2%
Marburg virus (MARV)
  inhibition at 1 µM: 63.7%
Dengue virus (DENV)
  inhibition at 1 µM: 21.8%

## CC(CC(=O)O)C1CN(Cc2cc(Oc3cnc(N4CCN(C)CC4)nc3)nc(-c3cc(Cl)cc(Cl)c3)c2)C1 (stereo not drawn) [Example 127, 3-(1-((2-(3,5-dichlorophenyl)-6-((2-(4-methylpiperazin-1-yl)pyrimidin-5-yl)oxy)pyridin-4-yl)methyl)azetidin-3-yl)butanoic acid]
[1]
  inhibition at 1 µM: 26%
Marburg virus (MARV)
  inhibition at 1 µM: 52.1%
Dengue virus (DENV)
  inhibition at 1 µM: 0%

## CC(C)N1CCN(c2ncc(Oc3cc(CN4CCC(CC(=O)O)CC4)cc(-c4cc(Cl)cc(Cl)c4)n3)cn2)CC1 [Example 235, 2-(1-((2-(3,5-dichlorophenyl)-6-((2-(4-isopropylpiperazin-1-yl)pyrimidin-5-yl)oxy)pyridin-4-yl)methyl)piperidin-4-yl)acetic acid]
[1]
  inhibition at 1 µM: 27.4%
Marburg virus (MARV)
  inhibition at 1 µM: 69.8%
Dengue virus (DENV)
  inhibition at 1 µM: 0%
